Where “and” joins values, the source holds several entries; their conditions need not be identical. Identical values can stand only once. Numbers after ± are expanded uncertainties.
Key:
[1] = wn = mass fraction of the nth substance listed; conditions: 102 kPa, Liquid, Vibrating tube method
[2] = Liquid; for mass density: Vibrating tube method

CCCCCCCCCC(=O)OCC(COC(=O)CCCCCCCCC)OC(=O)CCCCCCCCC [1,2,3-propanetriyl tridecanoate] + CCCCCCCCO gave a mass density ([1]; 293.15 K, w1 = 0.016) of 826.5 ± 3.3 kg/m3, a mass density ([1]; 293.15 K, w1 = 0.0385) of 828.7 ± 3.3 kg/m3 and a mass density ([1]; 293.15 K, w1 = 0.0772) of 832.5 ± 3.3 kg/m3. The mass density ([1]; 293.15 K, w1 = 0.1287) was 837.4 ± 3.4 kg/m3, the mass density ([1]; 293.15 K, w1 = 1) was 921.6 ± 3.7 kg/m3 and the mass density ([1]; 298.15 K, w1 = 0.016) was 823.1 ± 3.3 kg/m3. For the same molecule, the mass density ([1]; 298.15 K, w1 = 0.0385) was 825.1 ± 3.3 kg/m3, the mass density ([1]; 298.15 K, w1 = 0.0772) was 829 ± 3.3 kg/m3 and the mass density ([1]; 298.15 K, w1 = 0.1287) was 833.9 ± 3.3 kg/m3. For the same molecule, the mass density ([1]; 298.15 K, w1 = 1) was 917.9 ± 3.7 kg/m3, the mass density ([1]; 303.15 K, w1 = 0.016) was 819.5 ± 3.3 kg/m3 and the mass density ([1]; 303.15 K, w1 = 0.0385) was 821.6 ± 3.3 kg/m3. It also gave a mass density ([1]; 303.15 K, w1 = 0.0772) of 825.4 ± 3.3 kg/m3, a mass density ([1]; 303.15 K, w1 = 0.1287) of 830.3 ± 3.3 kg/m3 and a mass density ([1]; 303.15 K, w1 = 1) of 913.6 ± 3.7 kg/m3. It also gave a mass density ([1]; 313.15 K, w1 = 0.016) of 812.6 ± 3.3 kg/m3, a mass density ([1]; 313.15 K, w1 = 0.0385) of 814.7 ± 3.3 kg/m3 and a mass density ([1]; 313.15 K, w1 = 0.0772) of 818.5 ± 3.3 kg/m3. The mass density ([1]; 313.15 K, w1 = 0.1287) was 823.3 ± 3.3 kg/m3, the mass density ([1]; 313.15 K, w1 = 1) was 906.2 ± 3.7 kg/m3 and the mass density ([1]; 333.15 K, w1 = 0.016) was 798.6 ± 3.2 kg/m3. It also gave a mass density ([1]; 333.15 K, w1 = 0.0385) of 800.7 ± 3.2 kg/m3, a mass density ([1]; 333.15 K, w1 = 0.0772) of 804.3 ± 3.2 kg/m3 and a mass density ([1]; 333.15 K, w1 = 0.1287) of 809.1 ± 3.2 kg/m3. The mass density ([1]; 333.15 K, w1 = 1) was 891 ± 3.6 kg/m3, the mass density ([1]; 353.15 K, w1 = 0.016) was 783.8 ± 3.1 kg/m3 and the mass density ([1]; 353.15 K, w1 = 0.0385) was 785.9 ± 3.2 kg/m3. For the same molecule, the mass density ([1]; 353.15 K, w1 = 0.0772) was 789.5 ± 3.2 kg/m3, the mass density ([1]; 353.15 K, w1 = 0.1287) was 794.4 ± 3.2 kg/m3 and the mass density ([1]; 353.15 K, w1 = 1) was 875.9 ± 3.6 kg/m3.

Work on CCCCCCCCCC(=O)OCC(COC(=O)CCCCCCCCC)OC(=O)CCCCCCCCC [1,2,3-propanetriyl tridecanoate] yielded a mass density ([2]; 293.15 K, 102 kPa) of 921.6 ± 3.7 kg/m3, a mass density ([2]; 298.15 K, 102 kPa) of 917.9 ± 3.7 kg/m3 and a mass density ([2]; 303.15 K, 102 kPa) of 913.6 ± 3.7 kg/m3. The mass density ([2]; 313.15 K, 102 kPa) was 906.2 ± 3.7 kg/m3, the mass density ([2]; 333.15 K, 102 kPa) was 891 ± 3.6 kg/m3 and the “vapor or sublimation pressure” value ([2]; 348.5 K, Langmuir technique) was 1.39e-08 ± 5.6e-09 kPa and 1.36e-08 ± 5.5e-09 kPa. The mass density ([2]; 353.15 K, 102 kPa) was 875.9 ± 3.6 kg/m3, the “vapor or sublimation pressure” value ([2]; 353.48 K, Langmuir technique) was 2.94e-08 ± 1.2e-08 kPa and 2.9e-08 ± 1.2e-08 kPa and the “vapor or sublimation pressure” value ([2]; 358.38 K, Langmuir technique) was 5.99e-08 ± 2.4e-08 kPa. The “vapor or sublimation pressure” value ([2]; 363.18 K, Langmuir technique) was 1.19e-07 ± 4.8e-08 kPa and 1.2e-07 ± 4.9e-08 kPa, the “vapor or sublimation pressure” value ([2]; 367.8 K, Langmuir technique) was 2.27e-07 ± 9.2e-08 kPa and the “vapor or sublimation pressure” value ([2]; 367.81 K, Langmuir technique) was 2.23e-07 ± 9.1e-08 kPa.

With CCCCCCCCCCCC(=O)OCC(COC(=O)CCCCCCCCCCC)OC(=O)CCCCCCCCCCC [1,2,3-propanetriyl tridodecanoate] + CCCCCCCCO the mass density ([1]; 293.15 K, w1 = 0.019) was 826.7 ± 3.3 kg/m3, the mass density ([1]; 293.15 K, w1 = 0.051) was 829.5 ± 3.3 kg/m3 and the mass density ([1]; 298.15 K, w1 = 0.019) was 823.3 ± 3.3 kg/m3. The mass density ([1]; 298.15 K, w1 = 0.051) was 826.2 ± 3.3 kg/m3, the mass density ([1]; 303.15 K, w1 = 0.019) was 819.7 ± 3.3 kg/m3 and the mass density ([1]; 303.15 K, w1 = 0.051) was 822.5 ± 3.3 kg/m3. It also gave a mass density ([1]; 303.15 K, w1 = 0.096) of 826.8 ± 3.3 kg/m3, a mass density ([1]; 303.15 K, w1 = 0.149) of 831 ± 3.3 kg/m3 and a mass density ([1]; 303.15 K, w1 = 1) of 905.1 ± 3.7 kg/m3. For the same molecule, the mass density ([1]; 313.15 K, w1 = 0.019) was 812.8 ± 3.3 kg/m3, the mass density ([1]; 313.15 K, w1 = 0.051) was 815.6 ± 3.3 kg/m3 and the mass density ([1]; 313.15 K, w1 = 0.096) was 819.7 ± 3.3 kg/m3. It also gave a mass density ([1]; 313.15 K, w1 = 0.149) of 824 ± 3.3 kg/m3, a mass density ([1]; 313.15 K, w1 = 1) of 899.6 ± 3.7 kg/m3 and a mass density ([1]; 333.15 K, w1 = 0.019) of 798.7 ± 3.2 kg/m3. It also gave a mass density ([1]; 333.15 K, w1 = 0.051) of 801.5 ± 3.2 kg/m3, a mass density ([1]; 333.15 K, w1 = 0.096) of 805.6 ± 3.2 kg/m3 and a mass density ([1]; 333.15 K, w1 = 0.149) of 809.9 ± 3.3 kg/m3. The mass density ([1]; 333.15 K, w1 = 1) was 886.9 ± 3.6 kg/m3, the mass density ([1]; 353.15 K, w1 = 0.019) was 784 ± 3.1 kg/m3 and the mass density ([1]; 353.15 K, w1 = 0.051) was 786.8 ± 3.2 kg/m3. It also gave a mass density ([1]; 353.15 K, w1 = 0.096) of 790.9 ± 3.2 kg/m3, a mass density ([1]; 353.15 K, w1 = 0.149) of 795.2 ± 3.2 kg/m3 and a mass density ([1]; 353.15 K, w1 = 1) of 870.4 ± 3.5 kg/m3.

Molecule CCCCCCCCCCCC(=O)OCC(COC(=O)CCCCCCCCCCC)OC(=O)CCCCCCCCCCC [1,2,3-propanetriyl tridodecanoate] has a mass density ([2]; 303.15 K, 100 kPa) of 905.1 ± 3.7 kg/m3, a mass density ([2]; 313.15 K, 100 kPa) of 899.6 ± 3.7 kg/m3 and a mass density ([2]; 333.15 K, 100 kPa) of 886.9 ± 3.6 kg/m3. It also gave a mass density ([2]; 353.15 K, 100 kPa) of 870.4 ± 3.5 kg/m3.

CCCCCCCC(=O)OCC(COC(=O)CCCCCCC)OC(=O)CCCCCCC [1,2,3-propanetriol trioctanoate] gave a mass density ([2]; 293.15 K, 102 kPa) of 952.7 ± 3.8 kg/m3, a mass density ([2]; 298.15 K, 102 kPa) of 948.9 ± 3.8 kg/m3 and a mass density ([2]; 298.15 K, 120 kPa) of 949.9 ± 3.8 kg/m3. The mass density ([2]; 298.15 K, 9830 kPa) was 955.5 ± 3.8 kg/m3, the mass density ([2]; 298.15 K, 20100 kPa) was 961.3 ± 3.9 kg/m3 and the mass density ([2]; 298.15 K, 30020 kPa) was 966.6 ± 3.9 kg/m3. The mass density ([2]; 298.15 K, 40050 kPa) was 971.9 ± 3.9 kg/m3, the mass density ([2]; 298.15 K, 50040 kPa) was 977.1 ± 3.9 kg/m3 and the mass density ([2]; 303.15 K, 102 kPa) was 944.9 ± 3.8 kg/m3. It also gave a mass density ([2]; 313.15 K, 102 kPa) of 937.4 ± 3.8 kg/m3, a mass density ([2]; 333.15 K, 102 kPa) of 922.5 ± 3.7 kg/m3 and a mass density ([2]; 353.15 K, 102 kPa) of 907.7 ± 3.6 kg/m3. The “vapor or sublimation pressure” value ([2]; 403.2 K, Transpiration method) was 0.0002069 ± 2.2e-05 kPa, the “vapor or sublimation pressure” value ([2]; 408.2 K, Transpiration method) was 0.0003133 ± 3.4e-05 kPa and the “vapor or sublimation pressure” value ([2]; 413.2 K, Transpiration method) was 0.0004698 ± 5.1e-05 kPa. The “vapor or sublimation pressure” value ([2]; 423.2 K, Transpiration method) was 0.001006 ± 0.00011 kPa, the “vapor or sublimation pressure” value ([2]; 433.2 K, Transpiration method) was 0.001977 ± 0.00021 kPa and the “vapor or sublimation pressure” value ([2]; 443.2 K, Transpiration method) was 0.004016 ± 0.00043 kPa. For the same molecule, the “vapor or sublimation pressure” value ([2]; 448.2 K, Transpiration method) was 0.005491 ± 0.00059 kPa.

Source: the NIST ThermoML archive (doi:10.1021/acs.jced.8b01046)
